Assay [1] addresses T1, Neuronal acetylcholine receptor; alpha4/beta2 (Homo sapiens, UniProt P17787+P43681). In words: Activity at human alpha-4-beta-2 nACh receptor expressed in Xenopus oocytes assessed as potentiation of acetyl chlone-induced currents by two-electrode voltage clamp method relative to control. It is filed as cell-based. As to conditions: Oocyte. A general note: Two-electrode voltage clamp is typically applied to oocytes expressing channels or transporters.

Assay [2] concerns the target T1, Neuronal acetylcholine receptor; alpha4/beta2. Kind of assay: Activity at human alpha-4-beta-2 nACh receptor expressed in Xenopus oocytes assessed as inhibition of acetyl chlone-induced currents by two-electrode voltage clamp method. It counts as cell-based, Oocyte.
Assay [3] deals with Neuronal acetylcholine receptor subunit alpha-7 (Homo sapiens, UniProt P36544). Kind of assay: Activity at human alpha7 nACh receptor expressed in Xenopus oocytes assessed as inhibition of acetyl chlone-induced currents by two-electrode voltage clamp method. It counts as cell-based, Oocyte.
Neuronal acetylcholine receptor subunit alpha-7, sequence (P36544 whole entry): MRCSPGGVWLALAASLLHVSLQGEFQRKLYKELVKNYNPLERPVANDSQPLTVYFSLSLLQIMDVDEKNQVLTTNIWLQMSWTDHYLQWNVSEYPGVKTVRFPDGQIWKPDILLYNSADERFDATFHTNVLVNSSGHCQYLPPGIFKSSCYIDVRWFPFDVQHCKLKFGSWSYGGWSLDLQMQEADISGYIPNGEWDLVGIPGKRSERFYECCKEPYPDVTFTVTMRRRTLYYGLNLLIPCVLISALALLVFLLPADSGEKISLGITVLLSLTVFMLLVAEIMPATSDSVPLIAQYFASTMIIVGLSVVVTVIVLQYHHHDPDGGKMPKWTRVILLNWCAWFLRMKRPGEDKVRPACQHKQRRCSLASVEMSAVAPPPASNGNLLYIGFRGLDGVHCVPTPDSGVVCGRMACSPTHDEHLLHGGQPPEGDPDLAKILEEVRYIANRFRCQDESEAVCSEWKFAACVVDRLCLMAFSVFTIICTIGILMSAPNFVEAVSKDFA

T1 sequence (P17787 whole entry): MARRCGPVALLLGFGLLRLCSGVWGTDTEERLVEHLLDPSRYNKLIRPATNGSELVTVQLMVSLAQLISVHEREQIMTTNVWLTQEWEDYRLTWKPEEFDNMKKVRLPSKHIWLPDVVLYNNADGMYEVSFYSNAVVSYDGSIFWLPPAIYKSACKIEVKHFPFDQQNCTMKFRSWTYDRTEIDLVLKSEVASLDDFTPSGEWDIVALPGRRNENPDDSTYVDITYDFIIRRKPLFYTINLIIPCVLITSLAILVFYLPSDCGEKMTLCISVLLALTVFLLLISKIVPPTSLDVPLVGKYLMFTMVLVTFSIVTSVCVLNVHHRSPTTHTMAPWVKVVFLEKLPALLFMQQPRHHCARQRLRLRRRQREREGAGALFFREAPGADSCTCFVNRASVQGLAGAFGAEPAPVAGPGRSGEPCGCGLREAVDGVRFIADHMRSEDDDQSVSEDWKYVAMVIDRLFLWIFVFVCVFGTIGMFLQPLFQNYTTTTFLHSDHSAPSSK
T1 sequence (P43681 whole entry): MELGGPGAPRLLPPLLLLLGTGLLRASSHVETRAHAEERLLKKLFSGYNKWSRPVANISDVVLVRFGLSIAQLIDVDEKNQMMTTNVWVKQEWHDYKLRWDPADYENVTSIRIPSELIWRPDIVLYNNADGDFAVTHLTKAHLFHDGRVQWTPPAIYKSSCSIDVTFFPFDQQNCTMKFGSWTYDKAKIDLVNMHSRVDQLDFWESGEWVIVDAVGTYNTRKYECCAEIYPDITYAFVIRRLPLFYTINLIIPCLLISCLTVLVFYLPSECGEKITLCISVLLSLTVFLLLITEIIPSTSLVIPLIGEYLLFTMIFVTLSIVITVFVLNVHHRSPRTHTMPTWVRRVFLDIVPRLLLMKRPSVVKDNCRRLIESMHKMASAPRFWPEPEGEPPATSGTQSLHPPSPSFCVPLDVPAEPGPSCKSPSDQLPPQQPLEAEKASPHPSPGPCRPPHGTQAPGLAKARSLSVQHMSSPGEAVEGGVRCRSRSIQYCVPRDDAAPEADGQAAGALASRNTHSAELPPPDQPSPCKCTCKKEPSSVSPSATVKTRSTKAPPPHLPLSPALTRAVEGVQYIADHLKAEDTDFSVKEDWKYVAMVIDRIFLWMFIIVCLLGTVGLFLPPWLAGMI

For `C=CC(C)(C)c1[nH]c2cc(Br)ccc2c1CCNC` [DESFORMYLFLUSTRABROMINE], the Activity in assay [1] turned out to be 295%. Further, the results for the IC50 in assay [2] and in assay [3] were 150 µM and 44 µM, respectively.

For `CNCCc1cn(CC=C(C)C)c2cc(Br)ccc12` [DEFORMYLFLUSTRABROMINE B], the IC50 (usually the concentration at which inhibition is half-maximal) in assay [3] is 209 µM.
